The values below come from PMC8427292, “Identification and Characterization of Antimicrobial Peptides From Butterflies: An Integrated Bioinformatics and Experimental Study” (Frontiers in Microbiology, 2021).

No end group written: not given here.

In assay [1] the test system is Escherichia coli biofilm. Briefly: Antibiofilm assay (crystal violet). The class given is cell-based. On the set-up: unit not given here. As to conditions: E. coli, 570 nm; for MBIC: biofilm formed in presence of AMPs (prevention); for MBEC: pre-formed biofilm (eradication). Here is the method:
(§1) Biofilms of the aforementioned microbes were allowed to form in microtiter plates under respective culture conditions in the absence (eradication) or presence (prevention) of AMPs. After incubation, the culture supernatant was discarded, and each well was gently rinsed to remove planktonic bacteria. Biofilms were fixed with methanol and stained with 0.1% crystal violet for 20 min; then the dye bound to the cells was resolubilized with ethanol, and the absorbance of the solution was evaluated at 570 nm using a microplate reader ([Abouelhassan et al., 2017]).

Assay [2] concerns Staphylococcus aureus biofilm. In words: Antibiofilm assay (crystal violet). It is filed as cell-based. Set-up: unit not given here. As to conditions: S. aureus, 570 nm; for MBEC: biofilm eradication; for MBIC: biofilm prevention. On the procedure:
as §1

In assay [3] the test system is Candida albicans biofilm. Briefly: Antibiofilm assay (crystal violet). The class given is cell-based. As to conditions: C. albicans, 570 nm; for MBEC: biofilm eradication; for MBIC: biofilm prevention. On the procedure:
as §1

The test system of assay [4] is E. coli. Briefly: In vivo antimicrobial assay, skin infection mouse model. Particulars: neutropenic mice, s.c. 100 μl of 1.0 × 10^8 CFU⋅ml^–1 E. coli; 100 μl AMP at MIC s.c. daily from 12 h post-infection; day 4; vs control. Here is the method: (§2) In vivo antimicrobial activities of the designed AMPs were examined in neutropenic mice following subcutaneous inoculation of 100 μl of 1.0 × 10^8 CFU⋅ml^–1 E. coli, S. aureus, or C. albicans ([Lee et al., 2005]). At 12 h post-infection, 100 μl of AMPs at the respective MIC value was applied by subcutaneous injection each day. Mice were sacrificed on day 4, and the infected area was carefully excised and homogenized. The CFU count was determined after overnight incubation of the homogenate aliquots. All animal care and experiments were performed in compliance with institutional and government guidelines and were approved by the Peking Union Medical College Hospital Animal Care and Use Committee.

Assay [5] relates to S. aureus. The assay is described as above. Particulars: neutropenic mice, s.c. 100 μl of 1.0 × 10^8 CFU⋅ml^–1 S. aureus; 100 μl AMP at MIC s.c. daily from 12 h post-infection; day 4; vs control. On the procedure:
as §2

Assay [6] concerns C. albicans. The description is as above. Particulars: neutropenic mice, s.c. 100 μl of 1.0 × 10^8 CFU⋅ml^–1 C. albicans; 100 μl AMP at MIC s.c. daily from 12 h post-infection; day 4; vs control. Here is the method:
as §2

Regarding “DKLIGSCVWGAVNYTSDCNAECKRRGYKGGHCGSFANVNCWCET (disulfide (positions not given here)) [DefA, designed synthetic butterfly defensin analog]”, in assay [1], the MBIC worked out at 8 and the MBEC came out at 32. In assay [2], this substance registered an MBEC of 16 and an MBIC of 4.

With “GCVFYECIARCRQRGYLSGGYCTINGCQCL-NH2 (disulfide (positions not given here)) [DefB, designed synthetic butterfly defensin analog, C-terminally amidated]”, in assay [1], the MBIC was determined as 8 and the MBEC is 32. For the same substance, in assay [2], the MBEC came to 16 and the MBIC is 2.

For “KWKIFKKIEKVGRNIRDGIIKAGPAVQVVGQAATIYKGK [CecB, designed synthetic butterfly cecropin analog]”, the values for the MBIC in assay [1], in assay [2] and in assay [3] were 2, 2 and 16, respectively. Moreover, the MBEC in assay [1] was determined as 8; in assay [2] it was 16; in assay [3], 32. Moreover, the “CFU count in infected skin” value in assay [4] and in assay [5] was “attenuate growth” throughout.

Take “GKIPIGAIKKGAKAVGKGLKALNIASTAHDIYSFHHKKKKH [MorA, designed synthetic butterfly moricin analog]”: the MBIC in assay [1], in assay [2] and in assay [3] was 4 throughout. In addition, the MBEC in assay [1] is on record as 8; in assay [2] it was 16; in assay [3], 16. In addition, in assay [6], the “CFU count in infected skin” value is reported as “suppress proliferation”.
